The test system of data set [1] is Mycobacterium tuberculosis. Kind of data set: Antimycobacterial activity against p-Aminosalicylic acid-resistant Mycobacterium tuberculosis H37Rv ATCC 35821 after 7 days by microplate Alamar blue assay. Format: functional. The following applies: H37Rv ATCC 35821, 168 h.
Data set [2] relates to MRC5. Briefly: Cytotoxicity against human MRC5 cells by MTT assay. Type of data set: cell-based. For orientation: Tetrazolium dyes change colour on reduction, which living cells bring about.
Data set [3] relates to Mycobacterium tuberculosis. Kind of data set: Antimycobacterial activity against Mycobacterium tuberculosis H37Rv after 7 days by microplate Alamar blue assay. Type of data set: functional. Conditions: 168 h. In general terms: Alamar Blue is a resazurin reagent that responds to reducing activity.
The subject of data set [4] is Mycobacterium tuberculosis. Kind of data set: Antimycobacterial activity against Mycobacterium tuberculosis H37Ra after 7 days by microplate Alamar blue assay. Conditions: 168 h. Format: functional.
Data set [5] concerns MRC5. Kind of data set: Cytotoxicity against human MRC5 cells at 50 ug/ml by MTT assay. Type of data set: cell-based.

The results in this text go back to ChEMBL document CHEMBL3352707, “Antimycobacterial activity of natural products and synthetic agents: pyrrolodiquinolines and vermelhotin as anti-tubercular leads against clinical multidrug resistant isolates of Mycobacterium tuberculosis” (Eur J Med Chem, 2015).

Converted amounts (≈) assume the structure as drawn.

The MIC is the lowest concentration that inhibits growth of the organism. Low values mean inhibition by little substance, high ones a need for much substance. As a reminder, the IC50 is the concentration that inhibits the measured activity by half. Low values mean higher potency, high ones lower potency. As to `C[n+]1cc2c(cn3c4ccccc4ccc23)c2ccccc21.[I-]`, the MIC in data set [1] came to 1.5 µg/mL; in data set [3] it was 6.2 µg/mL; in data set [4], 1.5 µg/mL. In addition, inhibition in the data set on MRC5 [2] was half-maximal at 30 µg/mL (IC50).
In the case of `CN1Cc2c(cn3c2ccc2ccccc23)-c2ccccc21`, the MIC in data set [1] was 1.5 µg/mL (≈ 5.27 µM); in data set [3], 6.2 µg/mL (≈ 21.8 µM); in data set [4], 0.7 µg/mL (≈ 2.46 µM). Also, half-maximal inhibition in the data set with MRC5 [2] (IC50) was put at 23.5 µg/mL (≈ 82.6 µM).
Regarding `COc1cccc2c1C(=O)c1c(O)c3c(c(O)c1C2=O)C[C@@](O)(C(=O)CO)C[C@@H]3O[C@H]1C[C@H](N)[C@H](O)[C@H](C)O1` [DOXORUBICIN], the Activity result with MRC5 [5] is recorded as “Non-toxic”.
As to `C/C=C/C1=CC=C/C(=C2\C(=O)CNC2=O)O1` [VERMELHOTIN], the MIC in data set [1] worked out at 3.1 µg/mL (≈ 14.3 µM); in data set [3] it was 6.2 µg/mL (≈ 28.5 µM); in data set [4], 3.1 µg/mL (≈ 14.3 µM). Besides, the midpoint of inhibition in the data set on MRC5 [2], the IC50, lay at 6.97 µg/mL (≈ 32.1 µM).
